Data on eight compounds can be found in article PMC6797481, “Identification of an allosteric binding site on the human glycine transporter, GlyT2, for bioactive lipid analgesics” (eLife, 2019).

The term EC50 denotes the concentration needed to bring the measured effect to its halfway point. For orientation: IC50 means the concentration at which inhibition is half-maximal.

What all share (type): cell-based
One test has as its target T1, GlyT2 F428A mutant (Homo sapiens, UniProt Q9Y345, F428A).
T1 construct: expressed in transfected cells; host or cells: Xenopus laevis oocytes (cRNA injection)
T1 sequence (Q9Y345 1-797 F428A): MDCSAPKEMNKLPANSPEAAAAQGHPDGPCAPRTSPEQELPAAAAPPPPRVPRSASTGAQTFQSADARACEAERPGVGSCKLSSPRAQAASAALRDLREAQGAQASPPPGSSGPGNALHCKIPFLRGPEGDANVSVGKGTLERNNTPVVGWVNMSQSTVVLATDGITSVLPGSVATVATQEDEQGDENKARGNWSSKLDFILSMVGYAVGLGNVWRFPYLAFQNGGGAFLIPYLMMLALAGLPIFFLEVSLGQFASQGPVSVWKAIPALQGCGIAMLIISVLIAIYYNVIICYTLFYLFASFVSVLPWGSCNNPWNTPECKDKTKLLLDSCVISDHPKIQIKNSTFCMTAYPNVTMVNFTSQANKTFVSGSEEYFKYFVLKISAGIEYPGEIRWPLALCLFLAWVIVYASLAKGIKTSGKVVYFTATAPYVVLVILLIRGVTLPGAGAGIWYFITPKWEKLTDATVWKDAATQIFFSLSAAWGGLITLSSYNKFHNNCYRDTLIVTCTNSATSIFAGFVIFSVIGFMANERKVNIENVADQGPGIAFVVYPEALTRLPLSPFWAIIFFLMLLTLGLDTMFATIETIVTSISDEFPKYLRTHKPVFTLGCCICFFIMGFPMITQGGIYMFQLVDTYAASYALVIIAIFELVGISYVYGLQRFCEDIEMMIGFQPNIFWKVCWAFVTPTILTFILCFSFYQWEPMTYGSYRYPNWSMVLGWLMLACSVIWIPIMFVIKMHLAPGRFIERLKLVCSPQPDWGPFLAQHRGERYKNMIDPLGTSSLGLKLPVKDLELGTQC
The test can be described thus: Glycine transport currents, two electrode voltage clamp, oocytes expressing GlyT2 F428A. Particulars: for % Max. inhibition (% inhibition at the highest concentration of inhibitor used): footnote b. How it is done: (§1) Glycine was first applied to establish maximal transport current.
(§2) Compounds were tested for inhibition of glycine transport on Xenopus laevis oocytes expressing mutant GlyT1 and GlyT2 transporters. n values are in brackets, with measurements taken from at least 2 batches of oocytes.

A further test concerns the target T2, GlyT2 V432A mutant (Homo sapiens, UniProt Q9Y345, V432A).
T2 construct: expressed in transfected cells; host or cells: Xenopus laevis oocytes (cRNA injection)
T2 sequence (Q9Y345 1-797 V432A): T1 sequence (Q9Y345 1-797 F428A) with A428F, V432A
Description: Glycine transport currents, two electrode voltage clamp, oocytes expressing GlyT2 V432A. Particulars: for % Max. inhibition: mean ± SEM. How it is done:
as §1, §2
In general terms: In two-electrode clamp one electrode senses voltage and the other passes current.

For the next test, the target named is T3, GlyT2 I545L mutant (Homo sapiens, UniProt Q9Y345, I545L).
T3 construct: expressed in transfected cells; host or cells: Xenopus laevis oocytes (cRNA injection)
T3 sequence (Q9Y345 1-797 I545L): T1 sequence (Q9Y345 1-797 F428A) with A428F, I545L
Description: Glycine transport currents, two electrode voltage clamp, Xenopus laevis oocytes expressing GlyT2 I545L. Particulars: for % Max. inhibition: mean ± SEM. The procedure:
as §1, §2

Where [1] appears, read: GlyT2 V432A, greater than maximum concentration applied (footnote a).
Setting [2] is: GlyT2 I545L, greater than maximum concentration applied (footnote a).

Each structure is given as a SMILES string. Numbering of substitutions follows the chain as printed. A value given as a limit tells only on which side of the number the result lay.

Turning to `NCC(=O)O` [Glycine], the concentration for a half-maximal effect (EC50) is 6.2 ± 0.4 µM at GlyT2 F428A mutant (glycine transport, GlyT2 F428A (TM5)) and 114 ± 21.6 µM on GlyT2 V432A mutant (glycine transport, GlyT2 V432A (TM5)).

For the compound `CCCCC/C=C\C/C=C\C/C=C\C/C=C\CCCC(=O)NCC(=O)O` [N-arachidonyl Glycine, reference compound], the “% Max. inhibition (% inhibition at the highest concentration of inhibitor used)” value at GlyT2 F428A mutant (GlyT2 F428A) is on record as 64.7 ± 6.6^b (p=0.9998) %. Also, the IC50 against GlyT2 F428A mutant (GlyT2 F428A, mean (95% CI)) is 14.4 µM; at GlyT2 V432A mutant (setting [1]), greater than 10 µM. Also, the “% Max. inhibition” value on GlyT2 V432A mutant (GlyT2 V432A) is reported as 4.2 ± 3.2 (p=0.0018) %.

As for `CCCCCCCC/C=C\CCCCCCCC(=O)NCC(=O)O` [N-oleoyl Glycine, reference compound], the IC50 on GlyT2 F428A mutant (GlyT2 F428A) and at GlyT2 V432A mutant (setting [1]) was greater than 10 µM throughout. On GlyT2 F428A mutant (GlyT2 F428A, mean ± SEM), the “% Max. inhibition” value is 25.4 ± 4.9 (p=0.0001) %. Besides, the “% Max. inhibition (% inhibition at the highest concentration of inhibitor used)” value at GlyT2 V432A mutant (GlyT2 V432A, footnote b) is reported as 1.9 ± 3.2^b (p=0.0001) %.

Take `CCCCCCCC/C=C\CCCCCCCC(=O)O[C@H](CC(=O)[O-])C[N+](C)(C)C` [oleoyl L-Carnitine, reference compound]: at GlyT2 F428A mutant (GlyT2 F428A), the IC50 is greater than 3 µM and the “% Max. inhibition (% inhibition at the highest concentration of inhibitor used)” value was 22.7 ± 3.0^b (p=0.0001) %. This compound returned an IC50 against GlyT2 V432A mutant (setting [1]) greater than 3 µM. Also, at GlyT2 V432A mutant (GlyT2 V432A), the “% Max. inhibition” value is 6.0 ± 3.2 (p=0.0001) %.

On to `CCCCCCCC/C=C\CCCCCCCC(=O)N[C@@H](CC(=O)O)C(=O)O` [oleoyl l-Aspartate], for which, on GlyT2 I545L mutant (setting [2]), the IC50 is greater than 10 µM. In addition, at GlyT2 I545L mutant (GlyT2 I545L), the “% Max. inhibition” value is given as 4.9 ± 6.4 (p=0.0001) %.

As to `CCCCCCCC/C=C\CCCCCCCC(=O)N[C@@H](CCCCN)C(=O)O` [oleoyl l-Lysine], the half-maximal inhibitory concentration (IC50) against GlyT2 F428A mutant (GlyT2 F428A) was greater than 3 µM; against GlyT2 I545L mutant (GlyT2 I545L, mean (95% CI)) it was 0.443 µM; against GlyT2 V432A mutant (GlyT2 V432A, mean (95% CI)), 0.0684 µM. For the same compound, the “% Max. inhibition (% inhibition at the highest concentration of inhibitor used)” value at GlyT2 F428A mutant (GlyT2 F428A) is 39.2 ± 2.3^b (p=0.0001) %. The “fold lower potency at I545L” value on GlyT2 I545L mutant (GlyT2 I545L compared with WT GlyT2) is reported as ~ 17 fold. Also, the “% Max. inhibition” value is given as 80.7% on GlyT2 I545L mutant (GlyT2 I545L) and 71.9 ± 1.9 (p=0.0001) % at GlyT2 V432A mutant (GlyT2 V432A).

`CCCCCCCC/C=C\CCCCCCCC(=O)N[C@@H](Cc1c[nH]c2ccccc12)C(=O)O` [oleoyl l-Tryptophan] displayed an IC50 against GlyT2 I545L mutant (setting [2]) greater than 10 µM. For the same compound, the “% Max. inhibition” value at GlyT2 I545L mutant (GlyT2 I545L) is 20.2 ± 1.7 (p=0.0001) %.

With `CCCCCCCC/C=C\CCCCCCCC(=O)N[C@H](C(=O)O)C(C)C` [oleoyl l-Valine], the “% Max. inhibition (% inhibition at the highest concentration of inhibitor used)” value at GlyT2 I545L mutant (GlyT2 I545L, footnote b) is on record as 22.5 ± 8.0^b (p=0.0001) %. Further, the IC50 at GlyT2 I545L mutant (setting [2]) is greater than 10 µM.
